How the values were obtained:
Plasmodium falciparum [1] = test: Relative in vitro activity compared to artemisinin against Plasmodium falciparum Indochina W2; type: functional
Plasmodium falciparum [2] = test: Relative in vitro activity compared to artemisinin against Plasmodium falciparum D6 (Sierra Leone); type: functional

| SMILES | Relative activity (Plasmodium falciparum [1]) | Relative activity (Plasmodium falciparum [2]) |
| --- | --- | --- |
| CCOC(=O)CC[C@@]12CC[C@H]3[C@H](C)CC[C@H]4CCO[C@H](O1)[C@]43OO2 | 506 | 422 |
| C[C@@H]1CC[C@H]2CCO[C@@H]3O[C@@]4(CCC(=O)O)CC[C@@H]1[C@@]23OO4 | 0.09 | 0.09 |
| CCCCC[C@H]1CO[C@@H]2O[C@@]3(C)CC[C@H]4[C@H](C)CC[C@@H]1[C@@]24OO3 | 145 | 170 |
| CCC[C@@]12CC[C@H]3[C@H](C)CC[C@H]4CCO[C@H](O1)[C@]43OO2 | 685 | 722 |
| CC[C@@]12CC[C@H]3[C@H](C)CC[C@H]4CCO[C@H](O1)[C@]43OO2 | 10 | 10 |
| C[C@@H]1CC[C@H]2CCO[C@@H]3O[C@@]4(CCCc5ccc(Cl)cc5)CC[C@@H]1[C@@]23OO4 | 28 | 13 |
| CC[C@H]1CO[C@@H]2O[C@@]3(C)CC[C@H]4[C@H](C)CC[C@@H]1[C@@]24OO3 | 466 | 914 |
| C[C@@H]1CC[C@H]2CCO[C@@H]3O[C@@]4(C)CC[C@@H]1[C@@]23OO4 | 190 | 237 |
| C[C@@H]1CC[C@H]2CCO[C@@H]3O[C@@]4(CCc5ccccc5)CC[C@@H]1[C@@]23OO4 | 2 | 6 |
| C[C@@H]1CC[C@H]2[C@@H](CCCc3ccccc3)CO[C@@H]3O[C@@]4(C)CC[C@@H]1[C@]32OO4 | 2506 | 5073 |
| CCCC[C@@]12CC[C@H]3[C@H](C)CC[C@H]4CCO[C@H](O1)[C@]43OO2 | 556 | 653 |
| C[C@@H]1CC[C@H]2[C@@H](C)CO[C@@H]3O[C@]4(C)CC[C@@H]1[C@]32OO4 [DEOXOARTEMISININ] | 567 | 659 |
| C[C@@H]1CC[C@H]2[C@@H](CCCc3ccc(Cl)cc3)CO[C@@H]3O[C@@]4(C)CC[C@@H]1[C@]32OO4 | 3317 | 6991 |
| C[C@@H]1CC[C@H]2CCO[C@@H]3O[C@@]4(CCCCc5ccccc5)CC[C@@H]1[C@@]23OO4 | 380 | 336 |
| CC(C)C[C@@]12CC[C@H]3[C@H](C)CC[C@H]4CCO[C@H](O1)[C@]43OO2 | 250 | 183 |
| CCCC[C@H]1CO[C@@H]2O[C@@]3(C)CC[C@H]4[C@H](C)CC[C@@H]1[C@@]24OO3 | 2090 | 5826 |
| CCC[C@H]1CO[C@@H]2O[C@@]3(C)CC[C@H]4[C@H](C)CC[C@@H]1[C@@]24OO3 | 550 | 473 |
